The source of these data is the NIST ThermoML archive (doi:10.1021/je300076y).

Data set [1] is described as follows: refractive index (Na D-line) (dimensionless). To be noted: 101.33 kPa, Liquid, Standard Abbe refractometry.
For data set [2] the following is noted: Liquid; for mass density: 293.15 K, 101.33 kPa, Vibrating tube method.

± gives the expanded uncertainty stated by the source.

Consider `CCO[Si](OCC)(OCC)OCC` [tetraethoxysilane], for which the refractive index (commonly a measure of how strongly the sample bends light) in data set [1] (293.15 K) worked out at 1.3835 ± 0.0007. Besides, in data set [2], the mass density (as a rule, mass per unit of volume) is 935 ± 0.3 kg/m3. In addition, the vapor or sublimation pressure – broadly, the pressure of vapour in equilibrium with the condensed phase – in data set [2] (439.35 K) was found to be 95.5 ± 2.5 kPa.

Turning to `CC(=O)c1ccccc1` [acetophenone], the refractive index in data set [1] (293.1 K) was determined as 1.537 ± 0.0008. Further, the mass density in data set [2] is listed as 1024.5 ± 0.3 kg/m3. Further, the “vapor or sublimation pressure” value in data set [2] (472.25 K) came out at 95.5 ± 2.5 kPa.

Regarding `CC(C)(C)O` [2-methylpropan-2-ol], the refractive index in data set [1] (293.15 K) is 1.3877 ± 0.0007. Also, the mass density in data set [2] came out at 788.4 ± 0.3 kg/m3. Moreover, the “vapor or sublimation pressure” value in data set [2] (353.61 K) and in data set [2] (353.71 K) was 95.5 ± 2.5 kPa throughout.
